The values that follow come from patent US8158587B2, “Compound having histone deacetylase-inhibiting activity, and pharmaceutical composition comprising the compound as an active ingredient” (Kyushu Institute of Technology, priority 2006, dated 2012).

pIC50: −log10 of the molar value. Where only a bound is given, the exact number is not on record here.

For assay [1], the system named is human wild type p21 promoter. In words: p21 promoter assay (luciferase) in MFLL-9 cells. Type of assay: cell-based. The conditions noted are these: 20 hours, concentration giving 1000% luminescence relative to negative control (100%). The protocol:
As an HDAC-inhibiting activity in an […] system, the following measurement was carried out using the p21 promoter inducing activity as an index. MFLL-9 cells used in the experiment are cells stably retaining a fusion gene (Dr. B. Vogelstaein) from the human wild type p21 promoter and luciferase gene. They were cultured using phenol red-free DMEM supplemented with 10% FBS in a steam-saturated incubator at 37° C. in the presence of 5% carbon dioxide. These MFLL-9 cells were sowed onto a 96-well microplate at a cell density of 2×10^4 cells/well and, after 24 hours of cultivation in 99 μl, per well, of the medium mentioned above, each test compound solution was added, followed by 20 hours of incubation. […] In a negative control, the same procedure was carried out without adding any inhibitor to the reaction system.
Using Luciferase Assay Reagent (Promega), the intensity of the luminescence due to the product of the enzymatic reaction involving luciferase expressed within cells was measured.

Assay [2] deals with T1, human HDAC4 (Homo sapiens, UniProt P56524).
T1 construct: made in house; host or cells: 293T cells (transient transfection, anti-FLAG immunoprecipitation, FLAG peptide elution)
Nature of the assay: HDAC-inhibiting activity, coumarin-labeled acetylated histone peptide assay. Type of assay: biochemical. The note with it: human HDAC4 from transfected 293T cells; 37° C., 30 minutes; read-out: HDAC-inhibiting activity IC50 HDAC4. The protocol:
In carrying out HDAC-inhibiting activity measurements, HDAC solutions were prepared in the following manner. […] The human HDAC1 expression vector used was pcDNA3-HD1 (Yang, W. M., Yao, Y. L., Sun, […]. & Seto, E. (1997) J. Biol. Chem. 272, 28001-28007), the human HDAC4 expression vector used was pcDNA3-HD4 ([…]., Nagase, […]. Biol. Chem. 274, 11713-11720), and the murine HDAC6 expression vector used was pcDNA3-mHDA2/HDAC6 ([…]. Biol. Chem. 274, 2440-2445). After 24 hours of incubation, cells were recovered, washed with PBS, suspended in lysis buffer (50 mM Tris-HCl (pH 7.5), 120 mM NaCl, 5 mM EDTA, 0.5% Nonidet P-40), and sonicated. The supernatant was collected by centrifugation and then deprived of nonspecific proteins using Protein A/G plus agarose beads (Santa Cruz Biotechnologies, Inc.). Thereafter, anti-FLAG M2 antibody (Sigma-Aldrich Inc.) was added, and the reaction was allowed to proceed at 4° C. for 2 hours. To this were added agarose beads, the reaction was allowed to proceed at 4° C. for 3 hours, and the agarose beads were washed three times with lysis buffer and then once with HD buffer (20 mM Tris-HCl (pH 8.0), 150 mM NaCl, 10% glycerol). […] HDAC-inhibiting activity evaluation in each in vitro system was made as follows. Each test compound was dissolved in DMSO, a stock solution with a concentration of 10 mM was thus prepared and this was used as an inhibitor stock solution. The assay was carried out by incubating the HDAC solution and a coumarin-labeled acetylated histone peptide solution in the presence of the test compound at 37° C. for 30 minutes (reaction volume 20 μl). To the reaction mixture was added 30 μl of trypsin, and the aminomethylcoumarin released by the enzymatic reaction was assayed using a fluorescent plate reader. In a negative control assay, no inhibitor was added to the reaction system and the same procedure was carried out.

Assay [3] deals with T2, human HDAC1 (Homo sapiens, UniProt Q13547).
T2 construct: made in house; host or cells: 293T cells (transient transfection, anti-FLAG immunoprecipitation, FLAG peptide elution)
Described as above. The note with it: human HDAC1 from transfected 293T cells; 37° C., 30 minutes. Type of assay: biochemical. The protocol: (§1) In carrying out HDAC-inhibiting activity measurements, HDAC solutions were prepared in the following manner. In each 100-mm dish, there were sowed 1×10^7 293T cells and, after 24 hours, they were transfected with a vector (5 μg) expressing human HDAC1 or HDAC4 or murine HDAC6 using the LipofectAmine 2000 reagent (Invitrogen). The human HDAC1 expression vector used was pcDNA3-HD1 (Yang, W. M., Yao, Y. L., Sun, J. M., Davie, J. R. & Seto, E. (1997) J. Biol. Chem. 272, 28001-28007), the human HDAC4 expression vector used was pcDNA3-HD4 (Fischle, W., Emiliani, S., Hendzel, M. J., Nagase, T., Nomura, N., Voelter, W. & Verdin, E. (1999) J. Biol. Chem. 274, 11713-11720), and the murine HDAC6 expression vector used was pcDNA3-mHDA2/HDAC6 (Verdel, A. & Khochbin, S. (1999) J. Biol. Chem. 274, 2440-2445).
(§2) After 24 hours of incubation, cells were recovered, washed with PBS, suspended in lysis buffer (50 mM Tris-HCl (pH 7.5), 120 mM NaCl, 5 mM EDTA, 0.5% Nonidet P-40), and sonicated. The supernatant was collected by centrifugation and then deprived of nonspecific proteins using Protein A/G plus agarose beads (Santa Cruz Biotechnologies, Inc.). Thereafter, anti-FLAG M2 antibody (Sigma-Aldrich Inc.) was added, and the reaction was allowed to proceed at 4° C. for 2 hours.
(§3) To this were added agarose beads, the reaction was allowed to proceed at 4° C. for 3 hours, and the agarose beads were washed three times with lysis buffer and then once with HD buffer (20 mM Tris-HCl (pH 8.0), 150 mM NaCl, 10% glycerol). The protein bound to the agarose beads was recovered by 1 hour of incubation with FLAG peptide (40 μg) (Sigma-Aldrich Inc.) in HD buffer (200 μl) at 4° C., and the liquid recovered was used, as a reactant solution, in the HDAC-inhibiting activity measurement described below.
(§4) HDAC-inhibiting activity evaluation in each in vitro system was made as follows. Each test compound was dissolved in DMSO, a stock solution with a concentration of 10 mM was thus prepared and this was used as an inhibitor stock solution. The assay was carried out by incubating the HDAC solution and a coumarin-labeled acetylated histone peptide solution in the presence of the test compound at 37° C. for 30 minutes (reaction volume 20 μl). To the reaction mixture was added 30 μl of trypsin, and the aminomethylcoumarin released by the enzymatic reaction was assayed using a fluorescent plate reader. In a negative control assay, no inhibitor was added to the reaction system and the same procedure was carried out.

The target of assay [4] is T3, murine HDAC6 (Mus musculus, UniProt Q9Z2V5).
T3 construct: made in house; host or cells: 293T cells (transient transfection, anti-FLAG immunoprecipitation, FLAG peptide elution)
T3 sequence (Q9Z2V5 1-1149): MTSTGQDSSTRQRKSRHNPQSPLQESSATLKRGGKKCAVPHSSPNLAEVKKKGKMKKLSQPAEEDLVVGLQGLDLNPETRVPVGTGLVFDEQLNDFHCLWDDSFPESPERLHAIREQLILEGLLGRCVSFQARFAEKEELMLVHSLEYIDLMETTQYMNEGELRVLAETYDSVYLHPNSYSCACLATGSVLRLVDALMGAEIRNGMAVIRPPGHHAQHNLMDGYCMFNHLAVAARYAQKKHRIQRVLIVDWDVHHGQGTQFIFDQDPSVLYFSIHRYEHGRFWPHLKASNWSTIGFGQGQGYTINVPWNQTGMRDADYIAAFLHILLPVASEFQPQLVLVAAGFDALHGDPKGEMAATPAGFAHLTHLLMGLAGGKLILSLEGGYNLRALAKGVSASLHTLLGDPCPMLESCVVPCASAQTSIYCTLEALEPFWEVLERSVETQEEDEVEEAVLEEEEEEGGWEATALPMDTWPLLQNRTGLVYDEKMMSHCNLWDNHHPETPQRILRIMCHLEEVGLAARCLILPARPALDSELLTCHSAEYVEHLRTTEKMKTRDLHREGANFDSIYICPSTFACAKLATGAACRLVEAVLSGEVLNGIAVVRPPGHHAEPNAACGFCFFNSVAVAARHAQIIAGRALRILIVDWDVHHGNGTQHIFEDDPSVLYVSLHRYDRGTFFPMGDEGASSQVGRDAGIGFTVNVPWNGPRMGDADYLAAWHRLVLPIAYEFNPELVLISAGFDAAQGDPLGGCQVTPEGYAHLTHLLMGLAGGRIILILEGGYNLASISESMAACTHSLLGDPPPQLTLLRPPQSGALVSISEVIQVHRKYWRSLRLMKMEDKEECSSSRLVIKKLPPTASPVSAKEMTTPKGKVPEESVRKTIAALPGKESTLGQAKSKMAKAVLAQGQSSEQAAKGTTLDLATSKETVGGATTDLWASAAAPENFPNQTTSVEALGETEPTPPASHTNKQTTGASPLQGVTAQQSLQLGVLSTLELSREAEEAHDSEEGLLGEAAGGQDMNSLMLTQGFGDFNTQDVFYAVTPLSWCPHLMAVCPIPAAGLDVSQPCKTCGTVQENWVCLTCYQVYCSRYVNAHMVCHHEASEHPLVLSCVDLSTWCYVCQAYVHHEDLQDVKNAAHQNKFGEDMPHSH
The description is as above. Type of assay: biochemical. The note with it: murine HDAC6 from transfected 293T cells; 37° C., 30 minutes. The protocol: as §1, §2, §3, §4

T1 sequence (P56524 whole entry): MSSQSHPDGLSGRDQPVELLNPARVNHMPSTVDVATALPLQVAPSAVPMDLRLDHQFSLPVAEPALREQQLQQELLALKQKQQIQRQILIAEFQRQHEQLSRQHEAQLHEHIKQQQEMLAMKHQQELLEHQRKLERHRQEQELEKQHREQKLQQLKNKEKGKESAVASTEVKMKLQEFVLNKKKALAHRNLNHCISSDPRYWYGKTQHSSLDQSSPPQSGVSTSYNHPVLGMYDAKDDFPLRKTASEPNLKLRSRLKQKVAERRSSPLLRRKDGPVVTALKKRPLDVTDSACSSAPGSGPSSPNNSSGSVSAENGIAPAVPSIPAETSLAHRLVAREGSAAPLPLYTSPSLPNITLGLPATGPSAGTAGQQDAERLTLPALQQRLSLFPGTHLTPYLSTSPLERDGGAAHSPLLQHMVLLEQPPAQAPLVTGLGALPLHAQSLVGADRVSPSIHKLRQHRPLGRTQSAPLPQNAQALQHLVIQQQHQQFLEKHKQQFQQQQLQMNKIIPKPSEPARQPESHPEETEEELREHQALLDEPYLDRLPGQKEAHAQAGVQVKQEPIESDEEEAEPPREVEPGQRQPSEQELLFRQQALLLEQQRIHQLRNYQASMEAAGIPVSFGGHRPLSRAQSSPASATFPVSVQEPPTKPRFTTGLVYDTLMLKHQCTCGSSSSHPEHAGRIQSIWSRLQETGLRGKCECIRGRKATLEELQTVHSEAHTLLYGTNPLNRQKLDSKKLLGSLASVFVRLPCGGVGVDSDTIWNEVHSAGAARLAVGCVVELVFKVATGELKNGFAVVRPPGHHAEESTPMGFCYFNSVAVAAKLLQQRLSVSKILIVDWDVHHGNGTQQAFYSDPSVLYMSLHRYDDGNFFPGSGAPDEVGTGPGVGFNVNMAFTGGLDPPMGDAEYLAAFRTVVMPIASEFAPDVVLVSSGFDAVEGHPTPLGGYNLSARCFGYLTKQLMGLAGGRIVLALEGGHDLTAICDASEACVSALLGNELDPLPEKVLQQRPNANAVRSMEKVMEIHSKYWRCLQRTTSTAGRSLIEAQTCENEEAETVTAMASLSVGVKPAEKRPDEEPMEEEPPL
T1 sequence (O15379 whole entry, further chain): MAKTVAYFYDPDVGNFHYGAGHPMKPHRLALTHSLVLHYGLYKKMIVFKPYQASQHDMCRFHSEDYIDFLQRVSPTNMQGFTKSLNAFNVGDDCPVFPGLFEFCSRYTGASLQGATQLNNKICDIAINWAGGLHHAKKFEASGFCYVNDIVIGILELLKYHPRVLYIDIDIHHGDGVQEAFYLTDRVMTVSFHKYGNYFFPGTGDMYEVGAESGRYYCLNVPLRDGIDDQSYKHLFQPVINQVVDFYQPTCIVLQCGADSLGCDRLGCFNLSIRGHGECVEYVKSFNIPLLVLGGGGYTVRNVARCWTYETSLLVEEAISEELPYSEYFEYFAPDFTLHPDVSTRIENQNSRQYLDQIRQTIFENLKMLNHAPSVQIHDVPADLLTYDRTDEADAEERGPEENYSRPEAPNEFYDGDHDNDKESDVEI
T2 sequence (Q13547 whole entry): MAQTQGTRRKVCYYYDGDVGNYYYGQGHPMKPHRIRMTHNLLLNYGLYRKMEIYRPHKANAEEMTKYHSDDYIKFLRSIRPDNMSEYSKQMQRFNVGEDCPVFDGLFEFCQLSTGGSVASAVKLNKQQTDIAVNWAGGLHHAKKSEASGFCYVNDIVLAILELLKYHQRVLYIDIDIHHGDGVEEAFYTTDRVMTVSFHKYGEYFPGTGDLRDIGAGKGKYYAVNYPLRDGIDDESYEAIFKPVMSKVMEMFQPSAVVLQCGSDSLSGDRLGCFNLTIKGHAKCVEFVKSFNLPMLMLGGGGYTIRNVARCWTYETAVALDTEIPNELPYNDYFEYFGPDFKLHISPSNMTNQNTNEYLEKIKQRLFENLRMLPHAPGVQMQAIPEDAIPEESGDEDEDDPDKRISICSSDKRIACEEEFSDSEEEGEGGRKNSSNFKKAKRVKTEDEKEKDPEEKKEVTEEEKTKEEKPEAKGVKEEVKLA

For the compound `CC1(C)NC(=O)[C@H](CCCCSCC(=O)C(F)(F)F)NC(=O)[C@H]2CCCN2C(=O)[C@H](Cc2ccccc2)NC1=O` [Ky-28, cyclo(-L-Am6(1,1,1-trifluoroacetonyl)-Aib-L-Phe-D-Pro-)], in assay [1], the “p21 promoter activity EC1000” value amounted to 6.5 µM. In addition, the results for the pIC50 in assay [2], in assay [3] and in assay [4] were 4.74, 4.08 and under 4.00, respectively.
For `CC1(C)NC(=O)[C@H](CCCCCC(=O)COCC(F)(F)F)NC(=O)[C@H]2CCCN2C(=O)[C@H](Cc2ccccc2)NC1=O` [Ky-60, cyclo(-L-Ae9(Tfemk)-Aib-L-Phe-D-Pro-)] the same measures were 0.85 µM, 6.34, 6.43 and under 4.00.
As for `CC1(C)NC(=O)[C@H](CCCCCSCc2cccnc2)NC(=O)[C@H]2CCCN2C(=O)[C@H](Cc2ccccc2)NC1=O` [Ky-68, cyclo(-L-Am7(3-pyridylmethyl)-Aib-L-Phe-D-Pro-)], in assay [1], the “p21 promoter activity EC1000” value was found to be 0.20 µM. In addition, the pIC50 (as a rule, the negative decadic logarithm of the IC50, by convention in mol/L) in assay [2] is 6.48; in assay [3], 6.40; in assay [4] it was 5.43.
Regarding `CC1(C)NC(=O)[C@H](CCCCCSCc2ccccc2)NC(=O)[C@H]2CCCN2C(=O)[C@H](Cc2ccccc2)NC1=O` [Ky-69, cyclo(-L-Am7(benzyl)-Aib-L-Phe-D-Pro-)], in assay [1], the “p21 promoter activity EC1000” value stood at 0.041 µM. Moreover, the negative logarithm of the IC50 (pIC50) in assay [2] was 8.19; in assay [3] it was 7.96; in assay [4] it was 6.92.
The corresponding values for `CC1(C)NC(=O)[C@H](CCCCC[S+]([O-])CC(=O)C(F)(F)F)NC(=O)[C@H]2CCCN2C(=O)[C@H](Cc2ccccc2)NC1=O` (stereo partly drawn) [Ky-71, cyclo(-L-Am7(1,1,1-trifluoroacetonyl, sulfoxide)-Aib-L-Phe-D-Pro-)] are 3.4 µM, under 4.00, under 4.00 and under 4.00.
The corresponding values for `CC1(C)NC(=O)[C@H](CCCCCCSCC(=O)C(F)(F)F)NC(=O)[C@H]2CCCN2C(=O)[C@H](Cc2ccccc2)NC1=O` [Ky-73, cyclo(-L-Am8(1,1,1-trifluoroacetonyl)-Aib-L-Phe-D-Pro-)] are 3.7 µM, 6.34, 5.96 and 4.58.
The corresponding values for `CC(=O)COCCCCC[C@@H]1NC(=O)[C@H]2CCCN2C(=O)[C@H](Cc2ccccc2)NC(=O)C(C)(C)NC1=O` [Ky-74, cyclo(-L-Ah7(acetonyl)-Aib-L-Phe-D-Pro-)] are over 250 µM, under 4.00, under 4.00 and under 4.00.
Take `COCC(=O)CSCCCCC[C@@H]1NC(=O)[C@H]2CCCN2C(=O)[C@H](Cc2ccccc2)NC(=O)C(C)(C)NC1=O` [Ky-85, cyclo(-L-Am7(methoxyacetonyl)-Aib-L-Phe-D-Pro-)]: the “p21 promoter activity EC1000” value in assay [1] amounted to 0.48 µM. For the same compound, the results for the pIC50 in assay [2], in assay [3] and in assay [4] were 7.11, 6.89 and 5.92, respectively.
